Like-named read-outs stand apart in the source and are kept apart here.
Assays:
[1] = test system: young, orchidectomized rats; assay: Rat Herschberger assay: organ weights of orchidectomized rats relative to sham; assay type: in vivo, rat (Sprague Dawley); conditions: 10 mg/kg (po), once daily for 4 days
Source text: The following is a typical procedure of the in vivo evaluation of the selective androgens of this invention. In particular, this assay looks primarily at the ability of the selective androgens of this invention to increase muscle size in an immature, castrated rat. In addition, androgenic effects are looked at primarily by weighing the prostate and seminal vesicles. Selective compounds will show a greater increase in the levator ani relative to the prostate and seminal vesicles when compared to testosterone treated, castrated animals or to intact animals that have not been treated. Immature Sprague Dawley male rats were obtained Charles River Laboratories (Stoneridge, N.Y.). All animals were maintained in a temperature and humidity controlled room with a 12 hr light: 12 hr dark cycle, with ad lib access to food (TD 291615, Teklad, Madison, Wis.) and water. Rats were anesthetized and orchidectomized (GDX) or sham surgery (SHAM) was performed. After a 7-day recovery period, the animals were randomized according to weight and assigned to treatment groups (n=5), SHAM, OVX+ vehicle, OVX+Cpd treated. Testosterone propionate (TP 1 mg/kg in 5% DMSO/95% corn oil) was administered by once daily subcutaneous injections, while the compounds of the invention are dosed in vehicle (typically 20% cyclodextrin or 0.5% carboxymethylcellulose) was administered by once daily oral gavage. The rats were then dosed once daily for 4 days. All animals were euthanized via carbon dioxide inhalation 24 hs after the last dose. The prostate, seminal vesicle and levator ani and bulba cavernous (LABC) tissues were removed, weighed and recorded. Body weights were recorded for each animal at baseline and at sacrifice.
Prostate, seminal vesicle and levator ani bulbus cavernosus (LABC) are all represented as % relative to sham. After sacrifice, organ weights of young, orchidectomized rats treated with compound for 4 days are compared to sham operated animals.

androgen receptor (AR) = target: T1, androgen receptor (AR) (Rattus norvegicus, UniProt P15207); assay: androgen receptor binding assay (fluorescence polarization, Fluormone AL Green competition)
T1 construct: purchased Invitrogen, Madison, Wis
T1 sequence (P15207 651-902 limits assumed): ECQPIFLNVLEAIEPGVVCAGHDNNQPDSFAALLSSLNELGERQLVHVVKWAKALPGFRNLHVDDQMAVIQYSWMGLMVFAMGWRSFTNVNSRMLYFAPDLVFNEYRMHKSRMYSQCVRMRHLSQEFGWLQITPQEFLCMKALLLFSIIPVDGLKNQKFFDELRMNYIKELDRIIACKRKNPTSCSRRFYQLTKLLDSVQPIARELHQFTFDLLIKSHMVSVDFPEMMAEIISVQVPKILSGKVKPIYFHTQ
Procedure: The assay was performed as specified by the manufacturer (Invitrogen, Madison, Wis.). Briefly, 1 μl of 10 mM compound was added to 500 μl of AR screening buffer in a 1.5 ml eppendorf tube to make a 2×10^−5M stock. 10-fold serial dilutions of the test compounds were prepared ranging in concentration from 10^−5M to 10^−12M. Each dilution was added in triplicate to a black 384-microtiter plate. The test compounds will be diluted 2-fold in the final reaction. 2×AR-Fluormone™ complex was prepared with 2 nM Flourmone AL Green™ and 30 nM AR. 25 μl of 2× complex was aliquoted to each reaction well, such that the final reaction volume was 50 μl per well. Plate was sealed with a foil cover and incubated in the dark at room temperature for 4 h. Polarization values for each well were measured. The polarization values were plotted against the concentration of the test compound. […] As a control, a competition curve for R1881 (methyltrienolone) was performed for each assay. Curve Fitting was performed using GraphPad Prism® software from GraphPad™ Software Inc. Binding data are reported as a single determination if the experiment was run once only and as the average of experiments if the binding experiment was performed two or more times with that compound.
Where multiple data points have been taken, the value reported is the average of the multiple determinations.

Cc1c(N[C@@H](c2nnc(-c3ccccc3)o2)[C@@H](C)O)ccc(C#N)c1Cl [Example 3, 2-chloro-4-((1R,2R)-2-hydroxy-1-(5-phenyl-1,3,4-oxadiazol-2-yl)propylamino)-3-methylbenzonitrile]
LABC (levator ani bulbus cavernosus) weight, % relative to sham [1]: 99% | Prostate weight, % relative to sham [1]: 43% | Seminal vesicle weight, % relative to sham [1]: 37% | IC50 (androgen receptor (AR)): 6 nM

Cc1c(N[C@@H](c2nnc(-c3ccccc3)o2)[C@H](C)O)ccc(C#N)c1Cl [Example 1, 2-chloro-4-((1R,2S)-2-hydroxy-1-(5-phenyl-1,3,4-oxadiazol-2-yl)propylamino)-3-methylbenzonitrile]
LABC (levator ani bulbus cavernosus) weight, % relative to sham [1]: 85% | Prostate weight, % relative to sham [1]: 46% | Seminal vesicle weight, % relative to sham [1]: 69% | IC50 (androgen receptor (AR)): 3 nM

C=Cc1c(N[C@@H](c2nnc(-c3ccc(C#N)cc3)o2)[C@H](C)O)ccc(C#N)c1Cl [Example 80, 2-chloro-4-((1R,2S)-1-(5-(4-cyanophenyl)-1,3,4-oxadiazol-2-yl)-2-hydroxypropylamino)-3-vinylbenzonitrile]
IC50 (androgen receptor (AR)): 1 nM

C[C@@H](O)[C@@H](Nc1ccc(C#N)c(C(F)(F)F)c1)c1nnc(-c2ccc(S(C)(=O)=O)cc2)o1 [Example 59, 4-((1R,2R)-2-hydroxy-1-(5-(4-(methylsulfonyl)phenyl)-1,3,4-oxadiazol-2-yl)propylamino)-2-(trifluoromethyl)benzonitrile]
IC50 (androgen receptor (AR)): > 1000 nM

C[C@H](O)[C@@H](Nc1ccc(C#N)c(Cl)c1)c1nnc(-c2ccccc2)o1 [Example 12, 2-chloro-4-((1R,2S)-2-hydroxy-1-(5-phenyl-1,3,4-oxadiazol-2-yl)propylamino)benzonitrile]
IC50 (androgen receptor (AR); single determination or average of multiple determinations, read-out: Binding IC50 (AR-Binding Affinity)): 300 nM

CC(=O)Nc1ccc(-c2nnc([C@H](Nc3ccc(C#N)c(Cl)c3C)[C@H](C)O)o2)cc1 [Example 78, N-(4-(5-((1R,2S)-1-(3-Chloro-4-cyano-2-methylphenylamino)-2-hydroxypropyl)-1,3,4-oxadiazol-2-yl)phenyl)acetamide]
IC50 (androgen receptor (AR)): 1 nM

CCCC(=O)Nc1ccc(-c2nnc([C@H](Nc3ccc(C#N)c(Cl)c3C)[C@@H](C)O)o2)cc1 [Example 71, N-(4-(5-((1R,2R)-1-(3-Chloro-4-cyano-2-methylphenylamino)-2-hydroxypropyl)-1,3,4-oxadiazol-2-yl)phenyl)butyramide]
IC50 (androgen receptor (AR)): 280 nM

Cc1c(N[C@@H](c2nnc(-c3ccc(C(F)(F)F)cc3)o2)[C@H](C)O)ccc(C#N)c1Cl [Example 68, 2-chloro-4-((1R,2S)-2-hydroxy-1-(5-(4-(trifluoromethyl)phenyl)-1,3,4-oxadiazol-2-yl)propylamino)-3-methylbenzonitrile]
IC50 (androgen receptor (AR)): 12 nM

Cc1c(N[C@@H](c2nnc(-c3cccc(F)c3)o2)[C@H](C)O)ccc(C#N)c1Cl [Example 81, 2-chloro-4-((1R,2S)-1-(5-(3-fluorophenyl)-1,3,4-oxadiazol-2-yl)-2-hydroxypropylamino)-3-methylbenzonitrile]
IC50 (androgen receptor (AR)): 2 nM

COc1ccc(-c2nnc([C@H](Nc3ccc(C#N)c(Cl)c3C)[C@H](C)O)o2)cc1 [Example 2, 2-chloro-4-((1R,2S)-2-hydroxy-1-(5-(4-methoxyphenyl)-1,3,4-oxadiazol-2-yl)propylamino)-3-methylbenzonitrile]
IC50 (androgen receptor (AR)): 5 nM

Cc1c(N[C@@H](c2nnc(-c3cccc(Cl)c3)o2)[C@H](C)O)ccc(C#N)c1Cl [Example 21, 2-chloro-4-((1R,2S)-1-(5-(3-chlorophenyl)-1,3,4-oxadiazol-2-yl)-2-hydroxypropylamino)-3-methylbenzonitrile]
IC50 (androgen receptor (AR)): 3 nM

Cc1c(N[C@@H](c2ncc(-c3ccccc3)o2)[C@H](C)O)ccc(C#N)c1Cl [Example 36, 2-Chloro-4-((1R,2S)-2-hydroxy-1-(5-phenyloxazol-2-yl)propylamino)-3-methylbenzonitrile]
IC50 (androgen receptor (AR)): 12 nM

Cc1c(N[C@@H](c2nnc(-c3ccc(Br)cc3)o2)[C@H](C)O)ccc(C#N)c1Cl [Example 56, 4-((1R,2S)-1-(5-(4-Bromophenyl)-1,3,4-oxadiazol-2-yl)-2-hydroxypropylamino)-2-chloro-3-methylbenzonitrile]
IC50 (androgen receptor (AR)): 10 nM

C[C@H](O)[C@@H](Nc1ccc(C#N)c2sccc12)c1nnc(-c2ccccc2)o1 [Example 63, 4-((1R,2S)-2-hydroxy-1-(5-phenyl-1,3,4-oxadiazol-2-yl)propylamino)benzo[b]thiophene-7-carbonitrile]
IC50 (androgen receptor (AR)): 1 nM

Cc1c(N[C@@H](c2nnc(-c3ccc(F)c(O)c3)o2)[C@@H](C)O)ccc(C#N)c1Cl [Example 41, 2-Chloro-4-((1R,2R)-1-(5-(4-fluoro-3-hydroxyphenyl)-1,3,4-oxadiazol-2-yl)-2-hydroxypropylamino)-3-methylbenzonitrile]
IC50 (androgen receptor (AR)): 0.02 nM

Cc1c(N[C@@H](c2nnc(-c3ccc(S(C)(=O)=O)cc3)o2)[C@H](C)O)ccc(C#N)c1Cl [Example 24, 2-chloro-4-((1R,2S)-2-hydroxy-1-(5-(4-(methylsulfonyl)phenyl)-1,3,4-oxadiazol-2-yl)propylamino)-3-methylbenzonitrile]
IC50 (androgen receptor (AR)): 200 nM

Cc1c(N[C@@H](c2nnc(-c3ccc(Cl)cc3)o2)[C@@H](C)O)ccc(C#N)c1Cl [Example 20, 2-Chloro-4-((1R,2R)-1-(5-(4-chlorophenyl)-1,3,4-oxadiazol-2-yl)-2-hydroxypropylamino)-3-methylbenzonitrile]
IC50 (androgen receptor (AR)): 15 nM

Cc1c(N[C@@H](c2nnc(-c3ccc(O)c(Cl)c3)o2)[C@H](C)O)ccc(C#N)c1Cl [Example 37, 2-Chloro-4-((1R,2S)-1-(5-(3-chloro-4-hydroxyphenyl)-1,3,4-oxadiazol-2-yl)-2-hydroxypropylamino)-3-methylbenzonitrile]
IC50 (androgen receptor (AR)): 0.2 nM

C[C@H](O)[C@@H](Nc1ccc(C#N)c2sccc12)c1nnc(-c2ccc(F)cc2)o1 [Example 62, 4-((1R,2S)-1-(5-(4-fluorophenyl)-1,3,4-oxadiazol-2-yl)-2-hydroxypropylamino)benzo[b]thiophene-7-carbonitrile]
IC50 (androgen receptor (AR)): 15 nM

Source: patent publication US8455525B2, “Selective androgen receptor modulators” (Radius Health, Inc., priority 2008, dated 2013)
